The text below walks through data of patent EP4778922A1, “BICYCLIC COMPOUND, AND PREPARATION METHOD THEREFOR AND PHARMACEUTICAL USE THEREOF” (Shanghai Jeyou Pharmaceutical Co., Ltd., priority 2023, dated 2025).

One series deals with 22RV1 cells. The series is described as follows: Cell proliferation inhibition assay in 22RV1 cells (CellTiter-Glo, 7 days). Format: cell-based, human. The conditions noted are these: Homo sapiens. Summed up: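 LNCaP and 22RV1 human prostate cancer cells, 3000 per well, exposed to graded compound for 7 days at 37°C, 5% CO2; LNCaP got 0.2 nM DHT 1 h after compound. Viability by CellTiter-Glo luminescence; IC50 from four-parameter variable-slope fit.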

Another series deals with LNCaP cells. The series is described as follows: Cell proliferation inhibition assay in LNCaP cells (0.2 nM DHT, CellTiter-Glo, 7 days). The conditions noted are these: Homo sapiens, 168 h. It counts as cell-based, human. How it is done:
• 1. The human prostate cancer cell lines 22RV1 and LNCaP were purchased from ATCC. […] The cell concentration was adjusted to an appropriate concentration (determined based on the results of cell density optimization experiments), and the cells were seeded into a 96-well plate. A 100 µL cell suspension was added, resulting in 3000 cells per well. […] On the second day, for 22Rv1 cells, test compounds at different concentrations were added, and the cells were incubated at 37°C in a 5% CO2 incubator for 7 days; for LNCaP cells, test compounds at different concentrations were added first, and after 1 hour of treatment, 0.2 nM DHT was added. The cells were then incubated at 37°C in a 5% CO2 incubator for 7 days. • 4. After the incubation period, a volume of CellTiter-Glo detection reagent equal to the volume of the culture medium was added to each well. The plate was shaken and mixed thoroughly for 5 minutes, then incubated at room temperature for 10 minutes. Readings were taken using a PerkinElmer EnVision microplate reader. • 5.
The IC50 curve was fitted and the IC50 value was calculated using the software GraphPad Prism 8 with the calculation formula XY-analysis/Nonlinear regression (curve fit)/Dose response-Inhibition/log (inhibitor) vs. response-Variable slope (four parameters).
For orientation: ATP-based viability assays read luminescence as a measure of living cells.

Series [1] in a line: Mouse pharmacokinetic test. It counts as in vivo, ICR mice. The conditions noted are these: plasma, po, 30 mg/kg, PO-30mpk. Summed up: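 Male naive ICR mice (25–30 g, n=3 per route) received a single intravenous or oral dose, with feeding resumed 4 h post-dose. Blood was centrifuged at 4°C, and plasma was stored at -80°C until analysis.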

For the compound `CC(C)(c1ccc(-c2cnc(OCc3ccnc(N4CC5(CCS5(=N)=O)C4)n3)cn2)cc1)c1cc(Cl)c(OCCCl)c(C#N)c1` (racemic) [Compound 375], the values for the IC50 in the series with 22RV1 cells (168 h) and in the series on LNCaP cells were 120 nM and 59 nM, respectively.
The corresponding values for `CC(C)(c1ccc(-c2ccc(OCCN3CCS(=O)(=O)CC3)cc2)cc1)c1cc(Cl)c(OCCCl)c(C#N)c1` [Compound 298] are 190 nM and 760 nM.
As to `CC(C)(c1ccc(-c2ccc(OCc3nccnc3P(C)(C)=O)cc2)cc1)c1cc(Cl)c(OCCCl)c(C#N)c1` [Compound 358], the half-inhibitory concentration (IC50) (in general, the point on the concentration scale where inhibition reaches its midpoint) amounted to 570 nM with 22RV1 cells (168 h) and 240 nM in the series with LNCaP cells.
In the same order, the values of `CC(C)(c1ccc(-c2cnc(OCc3ccnc(N4CC(N=S(C)(C)=O)C4)n3)cn2)cc1)c1cc(Cl)c(OCCCl)c(C#N)c1` [Compound 388] are 370 nM and 530 nM.
The corresponding values for `CC(C)(c1ccc(-c2ccc(OCc3cnc(-c4cnc(P(C)(C)=O)nc4)cn3)nc2)cc1)c1cc(Cl)c(OCCCl)c(C#N)c1` [Compound 410] are 880 nM and 27000 nM.
For the compound `CC(C)(c1ccc(-c2ccc(OCc3ccnc(N=S4(=O)CCN(CC(F)F)CC4)n3)nc2)cc1)c1cc(Cl)c(OCCCl)c(C#N)c1` [Compound 264], the IC50 in the series on 22RV1 cells (168 h) amounted to 250 nM; in the series with LNCaP cells it was 980 nM.
Turning to `CC(C)(c1cc(Cl)c(OCCCl)c(C#N)c1)c1ccc(-c2ccc(OCc3ccnc(N4CC(S(C)(=O)=O)C4)n3)cc2)cn1` [Compound 476], the concentration for half-maximal inhibition (IC50) worked out at 170 nM with 22RV1 cells (168 h) and 44 nM with LNCaP cells.
In the same order, the values of `CC(C)(c1ccc(-c2ccc(OCc3ccnc(N4C5CCC4CC(S(C)(=O)=O)C5)n3)cc2)cc1)c1cc(Cl)c(OCCCl)c(C#N)c1` (stereo not shown) [Compound 463] are 88 nM and 93 nM.
Consider `CC(C)(c1ccc(-c2ccc(OCc3ccnc(N4CC5(C4)CS(=N)(=O)C5)n3)cn2)cc1)c1cc(Cl)c(OCCCl)c(C#N)c1` [Compound 422], for which the figures for the IC50 in the series on 22RV1 cells (168 h) and in the series with LNCaP cells were 690 nM and 530 nM, respectively.
`CC(C)(c1ccc(-c2ccc(OCc3ccnc(N=S4(=O)CCOCC4)n3)cn2)cc1)c1cc(Cl)c(OCCCl)c(C#N)c1` [Compound 62]: in the series on 22RV1 cells (22Rv1, 168 h), the IC50 was 260 nM. In series [1], the AUC(0-inf) (as a rule, the area under the concentration-time curve extrapolated to infinity) turned out to be 188 µg·h/mL; the peak concentration (Cmax) (usually the maximum level reached in the sampled fluid or tissue) turned out to be 19900 ng/mL; the half-life (commonly how long it takes for the measured level to halve) is 120 min. In addition, in series [1] (read-out: Tmax), the Tmax (usually the time from dosing to the highest level) came to 2 h. Half-maximal inhibition in the series with LNCaP cells (LNCaP) (IC50) required 830 nM.
On to `CC(C)(c1cc(Cl)c(OCCCl)c(C#N)c1)c1ccc(-c2ccc(OCc3ccnc(N4CC(S(C)(=O)=O)C4)n3)cn2)cn1` [Compound 471], for which the 50% inhibitory concentration (IC50) in the series with 22RV1 cells (168 h) worked out at 950 nM; in the series on LNCaP cells it was 430 nM.
Consider `CC(C)(c1cc(Cl)c(OCCCl)c(C#N)c1)c1ccc(-c2ccc(OCc3ccnc(N4CC(S(C)(=N)=O)C4)n3)cc2)cn1` (stereo not shown) [Compound 477], for which the IC50 in the series with 22RV1 cells (168 h) was 690 nM; in the series on LNCaP cells, 240 nM.
